Experimental data from US20040086995A1, “Beta1, 4-N-Acetylgalactosaminyltransferases, nucleic acids and methods of use thereof” (priority 2002, published 2004).

Columns and labels:
[1] = target: SH-Ceβ4GalNAcT (soluble, HPC4-epitope tagged form of C. elegans UDPGalNAc:GlcNAcβ-R β1,4-N-acetylgalactosaminyltransferase, encoded by Y73E7A.7) (C. elegans); test: cell-based or functional assay
SH-Ceβ4GalNAcT [2] = target: T1, SH-Ceβ4GalNAcT (Caenorhabditis elegans, UniProt Q9GUM2); test: β4GalNAcT assay, sugar nucleotide (donor) specificity; format: biochemical, C. elegans; settings: for Relative activity (%): acceptor GlcNAcβ-S-pNP 1 mM, donor 0.5 mM, enzyme on HPC4-beads, 100% = UDP-GalNAc
T1 construct: the catalytic domain of the Ceβ4GalNAcT (beginning at K34, the first amino acid after the transmembrane domain); signal peptide (from vector pcDNA3.1(+)-TH) (N); made in house; host or cells: CHO-Lec8 (and CHO-Lec2) cells, stably transfected; enzyme captured from the culture medium on HPC4-UltraLink beads
Description: (§1) Purification of SH-C.E.β4GalNAcT—Medium containing SH-Ceβ4GalNAcT was centrifuged at 1,500×g for 5 min to remove cellular debris, and then incubated with HPC4-UltraLink beads (5 mg HPC4 antibody per ml of beads; 0.1 ml of beads per ml of medium) for one hour at room temperature on a rotating platform. The beads were collected by centrifugation at 600×g for 3 min, and washed three times with 10 ml of 100 mM sodium cacodylate pH 7.0, 2 mM CaCl2. The beads were then resuspended in the same buffer with the addition of 20 mM MnCl2, and used as the enzyme source. For Western blot analysis, the bound material was released by incubating the beads in a buffer of 50 mM sodium cacodylate pH 7.0, 20 mM EDTA for 10 min at room temperature, then collecting the supernatant.
(§2) β4GalNAcT assays—Standard assays were performed essentially as described previously (40) in a […] reaction mixture containing […] sodium cacodylate pH 7.2, 12.5 nmol UDP-[^3H]GalNAc (2.5 Ci/mol), […] MnCl2, […] ATP, […] Triton X-100, […] beads and acceptor substrate, containing 25 nmol of terminal GlcNAc at the non-reducing end unless otherwise indicated. Control assays lacking the acceptor substrate were carried out to correct for incorporation into endogenous acceptors, and all assays were carried out in duplicate. After incubation at 37° C. for 180 min the reaction was stopped. When oligosaccharides or glycopeptides were the acceptor, the labeled product was separated from unincorporated label by chromatography on a 1-ml column of Dowex 1-X8 (Cl^−-form) according to Easton et al., (44). When oligosaccharide acceptors with hydrophobic aglycon (pNP) were used as the acceptor, the product was isolated using Sep-pak C-18 cartridges (Waters) as described (45). The isolated products were assayed for incorporation of radioactivity by liquid scintillation.

SH-Ceβ4GalNAcT [3] = target: T1, SH-Ceβ4GalNAcT; test: β4GalNAcT assay, effect of α-lactalbumin on acceptor use; format: biochemical, C. elegans; settings: for Relative activity (%): UDPGalNAc 0.5 mM, GlcNAc 1 mM or Glc 30 mM
Description: as §1, §2

SH-Ceβ4GalNAcT [4] = target: T1, SH-Ceβ4GalNAcT; test: β4GalNAcT assay, acceptor specificity; format: biochemical, C. elegans
Description: as §1
β4GalNAcT assays—Standard assays were performed essentially as described previously (40) in a […] reaction mixture containing […] sodium cacodylate pH 7.2, 12.5 nmol UDP-[^3H]GalNAc (2.5 Ci/mol), […] MnCl2, […] ATP, […] Triton X-100, […] beads and acceptor substrate, containing 25 nmol of terminal GlcNAc at the non-reducing end unless otherwise indicated. Control assays lacking the acceptor substrate were carried out to correct for incorporation into endogenous acceptors, and all assays were carried out in duplicate. […] The isolated products were assayed for incorporation of radioactivity by liquid scintillation.

T1 sequence (Q9GUM2 30-383 limits assumed): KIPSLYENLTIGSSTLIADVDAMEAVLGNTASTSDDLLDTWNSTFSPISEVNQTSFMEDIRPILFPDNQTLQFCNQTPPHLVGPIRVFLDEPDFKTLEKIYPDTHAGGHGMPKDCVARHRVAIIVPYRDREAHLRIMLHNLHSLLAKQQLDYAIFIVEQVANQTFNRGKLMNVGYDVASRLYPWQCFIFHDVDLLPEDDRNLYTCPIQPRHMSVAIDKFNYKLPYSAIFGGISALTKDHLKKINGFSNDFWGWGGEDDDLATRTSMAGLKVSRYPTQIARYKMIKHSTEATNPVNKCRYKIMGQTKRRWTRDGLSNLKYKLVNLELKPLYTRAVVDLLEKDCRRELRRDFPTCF
Chain of SH-Ceβ4GalNAcT (soluble, HPC4-epitope tagged form of C. elegans UDPGalNAc:GlcNAcβ-R β1,4-N-acetylgalactosaminyltransferase, encoded by Y73E7A.7) (C. elegans) (Q9GUM2 34-383): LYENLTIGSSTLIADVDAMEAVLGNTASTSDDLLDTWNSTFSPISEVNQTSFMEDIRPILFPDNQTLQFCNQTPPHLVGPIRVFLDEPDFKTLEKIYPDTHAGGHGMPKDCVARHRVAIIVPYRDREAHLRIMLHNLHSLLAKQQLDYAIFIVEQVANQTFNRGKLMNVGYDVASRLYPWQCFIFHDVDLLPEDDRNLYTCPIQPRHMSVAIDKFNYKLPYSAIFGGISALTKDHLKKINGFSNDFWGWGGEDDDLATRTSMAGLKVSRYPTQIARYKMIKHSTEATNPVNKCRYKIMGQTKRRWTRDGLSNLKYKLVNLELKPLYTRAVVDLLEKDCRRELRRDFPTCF

utilization as nucleotide-sugar donor (SH-Ceβ4GalNAcT [2])	Relative activity (%) (SH-Ceβ4GalNAcT [2])	Relative activity (%) (SH-Ceβ4GalNAcT [3]; with a-Lactalbumin 5 mg/ml)	Relative activity (%) (SH-Ceβ4GalNAcT [3]; without a-Lactalbumin)	Molecule	other results
				α-lactalbumin	Relative activity (%) of SH-Ceβ4GalNAcT with Glc (30 mM) as acceptor in the presence of a-lactalbumin (5 mg/ml); 3 without it [1]: 6%; Relative activity (%) of SH-Ceβ4GalNAcT with GlcNAc (1 mM) as acceptor in the presence of a-lactalbumin (5 mg/ml); 100 without it [1]: 40%
efficiently utilized	100%			CC(=O)N[C@H]1[C@@H](OP(=O)(O)OP(=O)(O)OC[C@H]2O[C@@H](n3ccc(=O)[nH]c3=O)[C@H](O)[C@@H]2O)O[C@H](CO)[C@H](O)[C@@H]1O [UDP-GalNAc]	
		6%	3%	OC[C@H]1OC(O)[C@H](O)[C@@H](O)[C@@H]1O (stereo partly drawn) [Glc]	
did not significantly utilize	0.7%			CC(=O)N[C@H]1[C@@H](OP(=O)(O)OP(=O)(O)OC[C@H]2O[C@@H](n3ccc(=O)[nH]c3=O)[C@H](O)[C@@H]2O)O[C@H](CO)[C@@H](O)[C@@H]1O [UDP-GlcNAc]	
		40%	100%	CC(=O)N[C@@H]1[C@@H](O)[C@H](O)[C@@H](CO)O[C@H]1O [Acceptor 9, GlcNAc]	utilization as acceptor substrate (SH-Ceβ4GalNAcT [4]): efficiently utilized
				a-lactalbumin: modifier protein expressed in lactating mammary glands, associates with β4GalT I and switches its acceptor specificity (protein, UniProt P00709 20-142, looked up) Alpha-lactalbumin: KQFTKCELSQLLKDIDGYGGIALPELICTMFHTSGYDTQAIVENNESTEYGLFQISNKLWCKSSQVPQSRNICDISCDKFLDDDITDDIMCAKKILDIKGIDYWLAHKALCTEKLEQWLCEKL	effect of α-lactalbumin on acceptor specificity (SH-Ceβ4GalNAcT [3]): did not induce SH-Ceβ4GalNAcT to utilize Glc as an acceptor instead of GlcNAc
